The test system of assay [1] is nuclear histone H3 citrullination. The assay can be described thus: Histone H3 citrullination in PMA-activated neutrophils (immunocytochemistry). The assay is classed as cell-based, human. The following applies: PMA 20 nM, 15 minutes; peptides 1 nM, Cl-amidine 10 μM. An excerpt: Green fluorescence=citrullinated-histone H3, magenta fluorescence=nuclear DNA (60× magnification; scale bar=20 μm). The right panel depicts Histone H3 citrullination that was quantified using IMAGEJ™ software (mean citrullinated-histone H3 pixel area per cell±SEM) (n=3). One way ANOVA with Tukey's post hoc testing, *P<0.05.
Imaging was accomplished via confocal microscopy using a FV1000 IX81 confocal microscope and FLUOVIEW™ software (OLYMPUS™). Semi-quantitation was accomplished using IMAGEJ™ software (NIH) to determine the average citrullinated histone H3 content per cell.

In assay [2] the test system is nuclear chromatin decondensation in PMNs. The assay can be described thus: Nuclear decondensation assay in PMA-treated neutrophils. The assay is classed as cell-based, human. The following applies: PMA 20 nM; peptides 1 nM, Cl-amidine 10 μM, sivelestat 200 nM. Here is the method:
FIG. 7B is a graph depicting nuclear areas that were measured (n=4) using IMAGEJ™ software (mean nuclear pixel area per cell±SEM). Paired Student's t test, *P<0.05, § P=0.057.
FIG. 12A depicts nuclear decondensation (white arrowheads and magnified image) that were assessed as in FIGS. 7A-7E after a 1 hour preincubation in medium alone, with neutrophil elastase (NE) inhibitor sivelestat (SIVL; 200 nM), or with CRISPP or CRISPP-SCR (both 1 nM) followed by treatment with PMA (20 nM) and an additional 1 hour incubation (n=3). Green fluorescence=nuclear DNA, (60× magnification, scale bar=20 μm). Nuclear area was quantified using IMAGEJ™ software (nuclear pixel area per cell±SEM). One way ANOVA with Tukey's post hoc testing; **P<0.01, ***P<0.001.
Nuclear decondensation was identified as described (see Papayannopoulos V, et al., J Cell Biol. 2010; 191 (3):677-91). Five randomly selected high-power visual fields per sample were captured via confocal microscopy and analyzed for nuclear area using the cell-permeable, fluorescent DNA dye SYTO® Green. The nuclear pixel areas of >100 individual cells per high-power field were determined using IMAGEJ™ software (NIH).

Assay [3] has as its target T1, neutrophil elastase (NE) (Homo sapiens, UniProt P08246).
T1 construct: purchased SIGMA-ALDRICH
T1 sequence (P08246 30-267): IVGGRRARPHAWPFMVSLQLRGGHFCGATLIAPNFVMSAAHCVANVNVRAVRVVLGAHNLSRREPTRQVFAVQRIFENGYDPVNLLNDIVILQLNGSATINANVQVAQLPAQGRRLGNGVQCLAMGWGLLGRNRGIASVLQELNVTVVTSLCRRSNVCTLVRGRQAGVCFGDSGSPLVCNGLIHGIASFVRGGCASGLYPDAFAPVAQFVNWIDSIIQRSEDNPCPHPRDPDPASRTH
The assay can be described thus: Neutrophil elastase activity assay. Type of assay: biochemical. Conditions: in vitro; (MeOSuc)-AAPV-(pNA) 160 μM, 3 hours, 37° C., and additional assays. The protocol: FIG. 12B depicts NE enzyme activity that was examined by cleavage of the synthetic substrate (MeOSuc)-AAPV-(pNA) to (MeOSuc)-AAPV and (pNA) as products detected by liquid chromatography and chromatogram peak identification by mass spectroscopy. (MeOSuc)-AAPV-(pNA) (160 μm) was incubated with NE (2 mU), sivelestat (160 μm), or NE and sivelestat (left panel) or with NE (2 mU), nNIF ([…]), or NE and nNIF (right panel) for 3 hours at 37° C. Chromatograms are offset on the X and Y axes for ease of comparison. In the presence of NE alone, the (MeOSvc)-AAPV-(pNA) peak was almost completely eliminated and (MeOSvc)-AAPV and (pNA) peaks were generated. […] In contrast, it was not inhibited by nNIF.
Synthetic fluorogenic substrate of NE, (MeOSuc)-AAPV-(pNA) (160 μM), was incubated with bioactive NE (500 nM)±the NE inhibitor, sivelestat (160 μM) or nNIF (50 nM), for 3 hours at 37° C. The reactions were quenched with 5% glacial acetic acid and centrifuged at 14,000 rpm for 5 minutes. Chromatograms were obtained using an AGILENT™ 1100 Series HPLC and a PHENOMENEX® 5 μm C18 LUNA® column (100 Å, 4.6×150 mm) over a 30 minute 10% to 90% B gradient (Buffer A 0.1% TFA in H2O, Buffer B 0.1% TFA in ACN). Mass spectra were obtained for secondary validation of the reaction products using an API® 3500 triple quadrupole mass spectrometer. Chromatograms were offset on both the X and Y axes (by 0.5 minutes and 0.1 A214, respectively) for greater visibility.

Assay [4] has as its system previously-formed NETs. The assay can be described thus: Post-treatment of previously formed NETs (dismantling). The following applies: agent added after LPS stimulation; nNIF, CRISPP 1 nM; DNase 3.78 U/mL. Type of assay: cell-based, human. The protocol:
FIG. 4A is a series of images depicting neutrophils isolated from venous blood of healthy adults that were incubated in medium alone (Control) or activated with LPS (100 ng/mL). CRISPP (1 nM) was added at 0, 30, or 60 minutes after LPS, and the presence of NETs was assessed by live cell imaging as in FIG. 1A after an additional 1 hour of incubation (20× magnification; scale bar=100 μm). The images are representative of three separate experiments.
(§1) For selected experiments, primary PMNs were pre-incubated with autologous plasma, cord blood plasma, nNIF (0.2-70 nM), CRISPP (0.2-70 nM), nNIF-SCR (1 nM), or CRISPP-SCR (1 nM) for one hour prior to stimulation. After pre-incubation and/or stimulation, PMNs were gently washed with PBS and incubated with a mixture of cell permeable (SYTO® Green, MOLECULAR PROBES®) and impermeable (SYTOX® Orange, MOLECULAR PROBES®) DNA fluorescent dyes. Confocal microscopy was accomplished using a FV1000 IX81 confocal microscope and FLUOVIEW™ software (OLYMPUS™). Both 20× and 60× objectives were used. Z-series images were obtained at a step size of 1 μm over a range of 20 μm for each field. FLUOVIEW™ and ADOBE™ PHOTOSHOP™ CS2 software was used for image processing.

Assay [5] deals with neutrophil extracellular trap (NET) formation. The assay can be described thus: In vitro NET formation by stimulated human PMNs (live cell imaging, NET-associated histone H3 release). The assay is classed as cell-based. The following applies: for NET formation triggered by LPS: adult PMNs preincubated with agent, LPS 100 ng/mL, 1 hour. Here is the method: as §1, with “Qualitative assessment of NET formation was performed as previously reported (see Yost C C, et al., Blood. 2009; 113 (25):6419-27 and McInturff A M, et al., Blood. 2012; 120 (15):3118-25). Briefly, primary PMNs isolated from preterm infants, healthy term infants, and healthy adults (2×10^6 cells/mL) were incubated with control buffer or stimulated with indicated agonists or bacteria for 1 hour at 37° C. in 5% CO2/95% air on glass coverslips coated with poly-L-lysine. For” for “For”
Using BSL 2 safety protocols, primary PMNs isolated from healthy adults (2×10^6 cells/mL) were incubated with mock infection buffer or live dengue virus (M010.05) as for live cell imaging. After a 1-hour incubation, the infected PMNs were fixed with 2% p-FA for 10 minutes prior to incubation with fluorescently-labeled, cell-permeable and cell-impermeable DNA dyes, and imaged as for live cell imaging using confocal microscopy.
NET-associated histone H3 content was determined as previously described (see McInturff A M, et al., Blood. 2012; 120 (15):3118-25). After live cell imaging of control and stimulated primary PMNs (2×10^6/mL; various agonists), the cells were incubated with PBS containing DNase (40 U/mL) for 15 minutes at room temperature to break down and release NETs formed in response to stimulation. The supernatant was gently removed and centrifuged at 420×g for 5 minutes. The cell-free supernatant was then mixed 3:1 with 4× Laemmli buffer prior to western blotting. A polyclonal primary antibody against human histone H3 protein (CELL SIGNALING®) and infrared-conjugated secondary antibodies (LI-COR®) were used. Imaging and densitometry were performed on the ODYSSEY® infrared imaging system)(LI-COR®). This assay was previously validated as a surrogate for NET formation under in vitro conditions (see McInturff A M, et al., Blood. 2012; 120 (15):3118-25) as employed in the present studies.
Without being bound by any specific theory, it was hypothesized that placentally expressed HTRA1, a serine protease, regulates the formation of NET-inhibitory peptides through cleavage of AAT. To test this hypothesis, term and preterm placenta were assessed for HTRA1 expression via western blotting. HTRA1 and AAT plasma expression from term and preterm infants and adults were determined by ELISA. Bioactive (0.5 μg) or placental eluted HTRA1 was incubated with AAT (8 μM) for 18 hours at 37° C. Carboxy-terminus fragments of AAT were detected using western blotting and mass spectrometry. The reaction products were incubated for 1 hour with PMNs isolated from healthy adults prior to LPS stimulation (100 ng/mL) and assessed for NET formation using live cell imaging. Reactive oxygen species were assessed using flow cytometry, chemotaxis using a modified Boyden chamber assay, and bacterial killing using E. coli.

Assay [6] addresses T2, recombinant PAD4 (Homo sapiens, UniProt Q9UM07).
T2 construct: purchased CAYMAN
The assay can be described thus: Cell-free PAD4 deimination assay. The following applies: initial comparison of NRPs. Type of assay: biochemical. The protocol:
One way ANOVA with Tukey's post hoc testing, ***P<0.001.
nNIF inhibition of PAD4 activity was determined using a PAD4 inhibitor screening assay kit (CAYMAN™). Briefly, nNIF (1 nM) was incubated with recombinant PAD4 and PAD4 enzyme substrate (2 mM) in PAD4 assay reagent for 30 minutes at 37° C. […] The reaction was stopped with PAD4 Stop Solution and detected using an included ammonia detector assay. Ammonia detector fluorescence was measured at 470 nm following excitation at 405 nm on a SPECTRAMAX™ M5 fluorescence plate reader (MOLECULAR DEVICES™).

The record followed here is patent US10857201B2, “NNIF and nNIF-related peptides and related methods” (UNIVERSITY OF UTAH RESEARCH FOUNDATION, priority 2016, dated 2020).

“Also recorded” adds a separate entry of the source.

T2 sequence (Q9UM07 whole entry): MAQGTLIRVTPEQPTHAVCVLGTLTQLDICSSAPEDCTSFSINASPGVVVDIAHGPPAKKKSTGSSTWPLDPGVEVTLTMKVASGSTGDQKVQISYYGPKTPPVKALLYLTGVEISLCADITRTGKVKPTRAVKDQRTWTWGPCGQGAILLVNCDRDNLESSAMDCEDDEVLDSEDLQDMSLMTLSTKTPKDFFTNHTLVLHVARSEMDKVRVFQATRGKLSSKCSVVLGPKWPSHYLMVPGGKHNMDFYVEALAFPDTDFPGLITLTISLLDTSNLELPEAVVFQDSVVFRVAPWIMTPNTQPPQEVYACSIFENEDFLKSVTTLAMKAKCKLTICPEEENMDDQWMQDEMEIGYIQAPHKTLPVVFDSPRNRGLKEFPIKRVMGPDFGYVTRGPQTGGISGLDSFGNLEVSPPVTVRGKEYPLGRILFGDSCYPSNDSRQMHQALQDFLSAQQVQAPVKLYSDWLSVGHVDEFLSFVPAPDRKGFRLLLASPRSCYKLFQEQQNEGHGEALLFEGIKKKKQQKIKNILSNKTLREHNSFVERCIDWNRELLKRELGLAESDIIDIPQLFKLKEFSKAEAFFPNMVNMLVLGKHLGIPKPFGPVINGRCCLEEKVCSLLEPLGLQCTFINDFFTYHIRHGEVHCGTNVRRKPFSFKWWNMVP

As for `NC(=O)[C@H](CCCN=C(N)CCl)NC(=O)c1ccccc1` [Cl-amidine, reference compound], the “nuclear histone H3 citrullination” value in assay [1] is on record as “inhibited”. The “nuclear decondensation (number of decondensed nuclei)” value in assay [2] is “blocked nuclear decondensation”. As for `CC(C)(C)C(=O)Oc1ccc(S(=O)(=O)Nc2ccccc2C(=O)NCC(=O)O)cc1` [sivelestat, reference compound], the “NE activity (substrate cleavage)” value in assay [3] was “inhibited but not eliminated”. Further, the “nuclear decondensation (number of decondensed nuclei)” value in assay [2] is listed as “blocks nuclear decondensation”. For the molecule DNase [reference compound], the “degradation or dismantling of previously-formed NETs” value in assay [4] was “dismantled”.

In the case of “LNTNKTKMGVQFPKMPFFKQIPVNSLEFV (Scrambled Peptide Control) [nNIF-SCR, scrambled control peptide of nNIF, reference compound]”, the “NET formation triggered by LPS” value in assay [5] is “does not”. For “MFLEAIPMSIPPEVKFNKPFVFLMIEQNTKSPLFMLKVVS (listed as Homo sapiens) [A1ATm^358]”, the “order of potency of inhibition of PAD4” value in assay [6] was “nNIF ≈CRISPP>A1ATm^358”. In assay [5], the “NET formation triggered by LPS” value is “inhibits NET formation, although with lesser potency than nNIF; also recorded: concentration-dependent pattern of inhibition”. Also, the “relative inhibition of NETosis (order of potency)” value in assay [5] (initial comparison of NRPs) is “nNIF ≈CRISPP>A1ATm^358”. “PMVSVAMMLSENIFKLPEVKSVPTEFFPKFINMKLLPFQI (Scrambled Peptide Control) [A1ATm^358-SCR, scrambled A1ATm^358, reference compound]”: in assay [5], the “NET formation triggered by LPS” value is “not”. For “SIPPEVKFNKPFVFLMIEQNTKSPLFMGKWNPTQK (listed as Homo sapiens) [HTRA1-CF, synthesized peptide generated by cleavage of A1AT by HTRA1]”, the “NET formation (FIG. 14)” value in assay [5] (agonist not stated) was “inhibits NET formation”. Turning to alpha-1-antitrypsin [full-length A1AT], in assay [5], the “NET formation triggered by LPS” value was “did not inhibit NET formation”.

“recombinant A1AT: active full-length recombinant A1AT from SIGMA-ALDRICH”: the “NET formation triggered by LPS” value in assay [5] is reported as “did not inhibit NET formation”.
